The source of these data is patent US7803930B2, “Antisense modulation of apolipoprotein B-expression” (Isis Pharmaceuticals, Inc., priority 2002, dated 2010).

In the oligonucleotide strings, read from the 5' end, every base follows the letter of its sugar. An asterisk marks phosphorothioate; unmarked linkages are phosphodiester. Other units and linkages are bracketed, terminal groups are in braces. A string of capitals states the bases alone. e = 2'-O-(2-methoxyethyl) (MOE); [5mC] = 5-methylcytosine; d = 2'-deoxy (DNA)

Data set [1] can be described thus: Time course at two doses in female C57BL/6 mice (Example 49): AST and ALT levels. It counts as in vivo, mouse. The procedure:
Female C57BL/6 mice were divided into two groups—one group receiving oligonucleotide treatment and control animals receiving saline treatment. After overnight fasting, mice were dosed intraperitoneally twice a week with saline or 25 mg/kg or 50 mg/kg of ISIS 281625 (SEQ ID NO: 224), ISIS 301012 (SEQ ID NO: 247), or ISIS 301027 (SEQ ID NO: 262). After 2 weeks, a blood sample was taken from the tail of the mice and evaluated for liver enzyme. After 4 weeks, and study termination, animals were sacrificed and evaluated for liver enzyme levels.

Data set [2] concerns human apolipoprotein(a) mRNA. Put plainly: Apolipoprotein(a) mRNA expression in primary human hepatocytes, real-time PCR. The class given is cell-based. The conditions noted are these: primary human hepatocytes, 24 hours. For orientation: Quantitative PCR measures a nucleic acid by following its amplification.
The subject of data set [3] is Cynomolgous monkey apolipoprotein B mRNA. Put plainly: Apolipoprotein B mRNA in primary Cynomolgous monkey hepatocytes, real-time PCR. The class given is cell-based. Conditions: primary Cynomolgous monkey hepatocytes, 24 hours (Table 46). A digest of the protocol:
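Primary cynomolgus hepatocytes treated with antisense oligonucleotides at 10, 50, 150 or 300 nM (some sets 10–150 nM) for 24 or 48 h, depending on the set. mRNA quantified by real-time PCR using human apoB and GAPDH primers/probes. Values are percent inhibition normalized to untreated cells, averaged over 2–6 experiments.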

Data set [4] relates to apolipoprotein B protein. Put plainly: Apolipoprotein B protein secreted from primary Cynomolgous monkey hepatocytes, ELISA. The class given is cell-based. Conditions: primary Cynomolgous hepatocytes. A digest of the protocol:
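Primary cynomolgus hepatocytes treated with oligonucleotide at 150 and 300 nM, or 50 and 150 nM for some compounds; secreted apoB protein quantified by apoB-specific ELISA. Values are means of 3 experiments.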

The mark [5] stands for this setting: 25 mg/kg i.p. twice a week, 2 weeks.
Setting [6] is: 25 mg/kg i.p. twice a week, 4 weeks.
[7] abbreviates: 50 mg/kg i.p. twice a week, 2 weeks.
Where [8] appears, read: 50 mg/kg i.p. twice a week, 4 weeks.

For “281625 (antisense eA*eG*eG*eT*eT*dA*d[5mC]*d[5mC]*dA*dG*d[5mC]*d[5mC]*dA*d[5mC]*dA*eT*eG*e[5mC]*eA*eG) [compound 281625]”, the ALT was found to be 21.2 IU/L in data set [1] (setting [5]), 31.8 IU/L in data set [1] (setting [6]), 30.8 IU/L in data set [1] (setting [7]) and 210.4 IU/L in data set [1] (setting [8]). Also, the AST in data set [1] (setting [5]) worked out at 40.8 IU/L; in data set [1] (setting [6]) it was 75 IU/L; in data set [1] (setting [7]), 44.4 IU/L; in data set [1] (setting [8]), 152.4 IU/L. For the same substance, the “% Change in apolipoprotein(a) mRNA expression following antisense inhibition of apolipoprotein B” value in data set [2] (5 nM) is −9%; in data set [2] (10 nM), −23%; in data set [2] (50 nM), −34%; in data set [2] (150 nM), “+32%”. Moreover, the “% Inhibition of apolipoprotein B mRNA” value is “+5%” in data set [3] (10 nM, "+" = expression increased); 41% in data set [3] (50 nM); 35% in data set [3] (150 nM, "+" = expression increased); 69% in data set [3] (300 nM). Also, the “% Reduction of monkey apolipoprotein B protein secretion” value in data set [4] (50 nM (Table 47)) was determined as 6%; in data set [4] (150 nM (Table 47)), 13%.
